Measurements: PubChem BioAssay (NCI)
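Results reflect a 48-hour exposure of cells in 96-well plates to compound at five concentrations. Abbreviation: GI50, concentration required for 50% inhibition of growth. TGI marks complete inhibition of growth.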

How the values were obtained:
Assay in all cases: NCI-60 cell line screen, 48 h
UO-31 renal = test system: UO-31 renal
EKVX NSCLC = test system: EKVX NSCLC
NCI-H460 lung = test system: NCI-H460 lung
MOLT-4 leukemia = test system: MOLT-4 leukemia
SK-MEL-28 melanoma = test system: SK-MEL-28 melanoma
UACC-62 melanoma = test system: UACC-62 melanoma
OVCAR-5 ovarian = test system: OVCAR-5 ovarian

SMILES: Brc1cccc(C2SCc3nc4ccccc4n32)c1 (stereo unspecified)
- TGI (UO-31 renal): 25.7 µM
- TGI (EKVX NSCLC): 55.2 µM
- TGI (NCI-H460 lung): 99.1 µM
- TGI (MOLT-4 leukemia): > 100 µM
- TGI (SK-MEL-28 melanoma): 47.9 µM
- TGI (UACC-62 melanoma): 31 µM
- TGI (OVCAR-5 ovarian): > 100 µM

SMILES: CCOC(=O)c1oc2ccc(OC)c3c2c1CCC3
- TGI (UO-31 renal): > 100 µM
- TGI (EKVX NSCLC): > 100 µM
- TGI (NCI-H460 lung): > 100 µM
- TGI (MOLT-4 leukemia): > 100 µM
- TGI (SK-MEL-28 melanoma): > 100 µM
- TGI (UACC-62 melanoma): > 100 µM
- TGI (OVCAR-5 ovarian): > 100 µM

SMILES: O=C1OC(CCCl)(c2ccccc2)CC1CN1CCOCC1 (stereo unspecified)
- TGI (UO-31 renal): > 100 µM
- TGI (EKVX NSCLC): 40.5 µM
- TGI (NCI-H460 lung): > 100 µM
- TGI (MOLT-4 leukemia): 48 µM
- TGI (SK-MEL-28 melanoma): 36.9 µM
- TGI (UACC-62 melanoma): 49.4 µM
- TGI (OVCAR-5 ovarian): > 100 µM

SMILES: O=S(=O)(c1ccccc1)C(CN1CCCCC1)S(=O)(=O)c1ccccc1
- TGI (UO-31 renal): > 100 µM
- TGI (NCI-H460 lung): > 100 µM
- TGI (MOLT-4 leukemia): > 100 µM
- TGI (SK-MEL-28 melanoma): > 100 µM
- TGI (UACC-62 melanoma): > 100 µM
- TGI (OVCAR-5 ovarian): > 100 µM

SMILES: CCCCCCCCCCCC(=O)OCCOCCOCCOCCOCCOCc1ccc(OC)cc1
- TGI (UO-31 renal): > 100 µM
- TGI (EKVX NSCLC): > 100 µM
- TGI (NCI-H460 lung): > 100 µM
- TGI (MOLT-4 leukemia): > 100 µM
- TGI (SK-MEL-28 melanoma): > 100 µM
- TGI (UACC-62 melanoma): > 100 µM
- TGI (OVCAR-5 ovarian): > 100 µM

SMILES: C[Si](C)(C)OC1(C#N)C2C3CC4C2C(=O)C2C4C3C21 (stereo unspecified)
- TGI (UO-31 renal): > 100 µM
- TGI (NCI-H460 lung): > 100 µM
- TGI (MOLT-4 leukemia): > 100 µM
- TGI (SK-MEL-28 melanoma): > 100 µM
- TGI (UACC-62 melanoma): > 100 µM

SMILES: Cn1cnc2nc(Cl)nc(NC(C)(C)C(C)(C)O)c21
- TGI (UO-31 renal): > 100 µM
- TGI (EKVX NSCLC): > 100 µM
- TGI (NCI-H460 lung): > 100 µM
- TGI (MOLT-4 leukemia): > 100 µM
- TGI (UACC-62 melanoma): > 100 µM
- TGI (OVCAR-5 ovarian): > 100 µM

SMILES: COc1cc2c(cc1OC(=O)CC(C)O)C1C(OC2=O)C(OC(C)=O)C=C2CCN(C)[C@H]21 (stereo partly specified)
- TGI (UO-31 renal): > 100 µM
- TGI (EKVX NSCLC): > 100 µM
- TGI (NCI-H460 lung): > 100 µM
- TGI (MOLT-4 leukemia): > 100 µM
- TGI (SK-MEL-28 melanoma): > 100 µM
- TGI (UACC-62 melanoma): > 100 µM
- TGI (OVCAR-5 ovarian): > 100 µM

SMILES: CCOc1ccc2nc(NC(=O)c3c/c(=N\NC(=O)C[N+](C)(C)C)c4ccc(O)cc4o3)sc2c1
- TGI (UO-31 renal): 24.7 µM
- TGI (EKVX NSCLC): 11.9 µM
- TGI (NCI-H460 lung): 13.4 µM
- TGI (MOLT-4 leukemia): 5.74 µM
- TGI (SK-MEL-28 melanoma): 13 µM
- TGI (UACC-62 melanoma): 3.21 µM
- TGI (OVCAR-5 ovarian): 7.3 µM

SMILES: CCCCCCc1cc(C(=O)Nc2cccc(C(F)(F)F)c2)nc(N)n1
- TGI (UO-31 renal): > 100 µM
- TGI (EKVX NSCLC): > 100 µM
- TGI (NCI-H460 lung): > 100 µM
- TGI (MOLT-4 leukemia): > 100 µM
- TGI (SK-MEL-28 melanoma): > 100 µM
- TGI (UACC-62 melanoma): > 100 µM
- TGI (OVCAR-5 ovarian): > 100 µM

SMILES: c1ccc2c(C3NCCc4[nH]cnc43)cccc2c1 (stereo unspecified)
- TGI (UO-31 renal): > 100 µM
- TGI (NCI-H460 lung): > 100 µM
- TGI (MOLT-4 leukemia): > 100 µM
- TGI (SK-MEL-28 melanoma): > 100 µM
- TGI (UACC-62 melanoma): > 100 µM
- TGI (OVCAR-5 ovarian): > 100 µM

SMILES: COc1ccc(N=c2ssc3c(=S)ssc23)cc1
- TGI (MOLT-4 leukemia): 26.9 µM
- TGI (SK-MEL-28 melanoma): 55.6 µM
- TGI (UACC-62 melanoma): 61.8 µM
- TGI (OVCAR-5 ovarian): > 100 µM

SMILES: CC(=O)OC1CCn2nnc(CO[Si](C)(C)C(C)(C)C)c21 (stereo unspecified)
- TGI (UO-31 renal): > 100 µM
- TGI (EKVX NSCLC): > 100 µM
- TGI (NCI-H460 lung): > 100 µM
- TGI (MOLT-4 leukemia): > 100 µM
- TGI (SK-MEL-28 melanoma): > 100 µM
- TGI (OVCAR-5 ovarian): > 100 µM

SMILES: N#CC(C(=O)CCC(=O)Nc1cccc(Cl)c1)c1ccccc1 (stereo unspecified)
- TGI (UO-31 renal): > 100 µM
- TGI (EKVX NSCLC): > 100 µM
- TGI (NCI-H460 lung): > 100 µM
- TGI (MOLT-4 leukemia): > 100 µM
- TGI (SK-MEL-28 melanoma): > 100 µM
- TGI (UACC-62 melanoma): > 100 µM
- TGI (OVCAR-5 ovarian): > 100 µM

SMILES: COc1cc(C(=O)C/C(CCC(=O)Nc2ccccc2[N+](=O)[O-])=N\NC(=O)CC#N)ccc1O
- TGI (UO-31 renal): > 100 µM
- TGI (EKVX NSCLC): > 100 µM
- TGI (NCI-H460 lung): > 100 µM
- TGI (MOLT-4 leukemia): > 100 µM
- TGI (SK-MEL-28 melanoma): > 100 µM
- TGI (UACC-62 melanoma): > 100 µM
- TGI (OVCAR-5 ovarian): > 100 µM

SMILES: CN(C)c1ccc(C=C2C(=O)OC(C)(C)OC2=O)cc1Br
- TGI (UO-31 renal): > 100 µM
- TGI (EKVX NSCLC): > 100 µM
- TGI (NCI-H460 lung): > 100 µM
- TGI (MOLT-4 leukemia): > 100 µM
- TGI (SK-MEL-28 melanoma): > 100 µM
- TGI (UACC-62 melanoma): > 100 µM
- TGI (OVCAR-5 ovarian): > 100 µM

SMILES: COC1CC(OS(=O)(=O)c2ccc(C)cc2)C(OC(=O)c2ccccc2)C(C)O1 (stereo unspecified)
- GI50 (UO-31 renal): > 100 µM
- TGI (UO-31 renal): > 100 µM
- GI50 (EKVX NSCLC): > 100 µM
- TGI (EKVX NSCLC): > 100 µM
- GI50 (NCI-H460 lung): > 100 µM
- TGI (NCI-H460 lung): > 100 µM
- GI50 (MOLT-4 leukemia): > 100 µM
- TGI (MOLT-4 leukemia): > 100 µM
- GI50 (SK-MEL-28 melanoma): > 100 µM
- TGI (SK-MEL-28 melanoma): > 100 µM
- TGI (UACC-62 melanoma): > 100 µM
- GI50 (OVCAR-5 ovarian): > 100 µM
- TGI (OVCAR-5 ovarian): > 100 µM

SMILES: Cc1c(C#N)c(=O)[nH]c(=O)n1CCN1CCN(C(=O)NCCCCCCNC(=O)N2CCN(CCn3c(C)c(C#N)c(=O)[nH]c3=O)CC2)CC1
- TGI (EKVX NSCLC): > 100 µM
- TGI (NCI-H460 lung): > 100 µM
- TGI (MOLT-4 leukemia): > 100 µM
- TGI (SK-MEL-28 melanoma): > 100 µM
- TGI (UACC-62 melanoma): > 100 µM

SMILES: c1ccc(SC(CCCCC(Sc2ccccc2)Sc2ccccc2)Sc2ccccc2)cc1
- TGI (UO-31 renal): > 100 µM
- TGI (EKVX NSCLC): > 100 µM
- TGI (NCI-H460 lung): > 100 µM
- TGI (MOLT-4 leukemia): > 100 µM
- TGI (SK-MEL-28 melanoma): > 100 µM
- TGI (UACC-62 melanoma): > 100 µM

SMILES: CCC1CN2CCc3cc(OC)c(OC)cc3C2CC1CC1c2cc(OC)c(OC)cc2CCN1C(=O)C1CCCN1C(=O)OCc1ccccc1 (stereo unspecified)
- TGI (UO-31 renal): 26 µM
- TGI (EKVX NSCLC): 43.3 µM
- TGI (NCI-H460 lung): 30.2 µM
- TGI (SK-MEL-28 melanoma): 30.7 µM
- TGI (UACC-62 melanoma): 29.7 µM
- TGI (OVCAR-5 ovarian): 34.2 µM

SMILES: O=C(O)C1(P(=O)(O)O)CC1
- TGI (UO-31 renal): > 100 µM
- TGI (EKVX NSCLC): > 100 µM
- TGI (NCI-H460 lung): > 100 µM
- TGI (MOLT-4 leukemia): > 100 µM
- TGI (SK-MEL-28 melanoma): > 100 µM
- TGI (UACC-62 melanoma): > 100 µM

SMILES: CCOC(=O)C(=O)Nc1c(CC)cccc1C(C)C
- TGI (UO-31 renal): > 100 µM
- TGI (EKVX NSCLC): > 100 µM
- TGI (NCI-H460 lung): > 100 µM
- TGI (SK-MEL-28 melanoma): > 100 µM
- TGI (UACC-62 melanoma): > 100 µM
- TGI (OVCAR-5 ovarian): > 100 µM

SMILES: O=C1C(=O)N(c2ccc(Cl)c(Cl)c2)C(=O)C(=O)C1c1nc2ccccc2s1
- TGI (UO-31 renal): > 100 µM
- TGI (EKVX NSCLC): > 100 µM
- TGI (MOLT-4 leukemia): > 100 µM
- TGI (SK-MEL-28 melanoma): > 100 µM
- TGI (UACC-62 melanoma): > 100 µM
- TGI (OVCAR-5 ovarian): > 100 µM
